According to patent publication US11560360B2, “Therapeutic compounds” (ARIZONA BOARD OF REGENTS ON BEHALF OF ARIZONA STATE …, priority 2016, dated 2023):

Experiments:
FRDA lymphocytes [1] = assay: Cytotoxicity assay in FRDA lymphocytes cultured in glucose free media (galactose), Live/Dead flow cytometry; assay type: cell-based; conditions: FRDA lymphocytes, galactose as sole sugar source, 24 h or 48 h incubation (FIG. 2)
Description: Flow cytometric determination of cell viability by fluorescence labeling was used employing calcein acetoxy-methyl-ester and ethidium homodimer-1 as live and dead cell stains
Cytotoxicity was assessed by the dye exclusion method. Live cells have intact membranes, which exclude a variety of dyes that easily penetrate the damaged, permeable membranes of non-viable cells. Propidium iodide, a membrane impermeant dye, is generally excluded from viable cells, although it can enter non-viable cells and bind to double-stranded DNA by intercalating between base pairs. Compounds 1-5 were tested for their cytotoxicity in FRDA lymphocytes using FACS analysis with propidium iodide. The results are depicted in FIG. 2. From the results it is evident that cytotoxicity decreases with increasing lipophilicity in lower as well as higher concentrations for compounds 1-5.
Evaluation of compounds 1-5 for their cytotoxicity and their ability to function within the mitochondrial respiratory chain was carried out by incubation of the prepared compounds for 24 or 48 h with FRDA lymphocytes. A nutrient-sensitized screening strategy has been used by culturing FRDA cells in galactose as the sole sugar source which forces mammalian cells to rely on mitochondrial oxidative phosphorylation (OXPHOS) to produce their ATP; they also become more sensitive to mitochondrial respiratory chain inhibitors than cells grown in glucose medium. Compounds 1-5 were tested for their cytotoxicity in FRDA lymphocytes using a simultaneous staining with a two-color fluorescence assay, the Live/Dead® Viability/Cytotoxicity Kit (Molecular Probes). This assay is used to measure two recognized parameters of cell viability, intracellular esterase activity and plasma integrity. The membrane-impermeant DNA dye ethidium homodimer-1 (EthD-1) was used to identify dead cells whose plasma membrane integrity was disrupted. The membrane-permeant dye calcein-AM was used to label live cells. It penetrates into the cells where it is metabolized by cytoplasmic esterases and becomes a fluorescent but membrane-impermeant probe which is retained in viable cells. One mL of FRDA lymphocyte cells (5×10^5 cells) was plated in a 24-well plate in glucose free media (galactose 25 mM), treated with the test compounds and incubated at 37° C. for 24 h or 48 h in a humidified atmosphere containing 5% CO2 in air. Cells were collected by centrifugation at 300×g for 3 min and washed with phosphate buffered saline. […] The samples were analyzed immediately by flow cytometry (C6 Accuri, BD Biosciences, San Jose, Calif.), using a 488 nm excitation laser and the and the FL1-H channel 530±15 nm emission filter and the FL2-H channel 585±15 nm. For each analysis 10,000 events were recorded and analyzed using C6 Accuri software (BD Biosciences).

FRDA lymphocytes [2] = assay: Measurement of cellular ATP concentration (firefly luciferase); assay type: cell-based, human; conditions: glucose free media (25 mM galactose), relative to untreated control (FIG. 6)
Description: Results are expressed as percentage of total ATP relative to untreated control.
ATP levels in FRDA lymphocytes were measured using firefly luciferase. The cells were grown on glucose-free media supplemented with galactose for 24 h prior to the addition of the test compounds. Since cells grown in galactose rely mostly on oxidative phosphorylation (OX-PHOS) to produce their ATP, they become more sensitive to mitochondrial respiratory chain inhibitors than cells grown in glucose medium.
Measurement of Cellular ATP Concentration
Total ATP levels in FRDA lymphocytes with or without partially blocking complex I activity with rotenone (5 nM) were measured using firefly luciferase as a means to measure ATP level. The cells were grown on glucose-free media supplemented with galactose. Since cells grown in galactose rely mostly on oxidative phosphorylation (OXPHOS) to produce their ATP, they become more sensitive to mitochondria respiratory chain inhibitors than cells grown in glucose medium. Briefly, lymphocytes (2×10^5 cell/mL) were plated (1 mL) in 24-well plates, treated with the test compounds, and then incubated at 37° C. for 48 h in a humidified atmosphere containing 5% CO2 in air. FRDA lymphocytes with partial inhibition of complex I, cells were preincubated with test compounds for overnight before rotenone (5 nM) treatment for 24 h. Cells in each well were mixed and transferred (100 μL) to 96-well microtiter black-walled cell culture plates (Costar, Corning, N.Y.). The total intracellular ATP level was measured in a luminator (Clarity™ luminescence microplate reader) using an ATP Bioluminescence Assay Kit (ViaLight®-Plus ATP monitoring reagent kit, Lonza) following the manufacturer's protocol. The total ATP level was expressed as a percentage of untreated control. Data are reported as the mean of at least three independent experiments.

[3] = tested on: FRDA lymphocytes treated with rotenone (complex I inhibition); assay: Cytoprotection of rotenone-treated FRDA lymphocytes; assay type: cell-based, human; conditions: 12 h preincubation in glucose-free media, then rotenone (50 nM) 24 h or 48 h (FIG. 3)
[4] = tested on: FRDA lymphocyte cells (GM15850); assay: Reactive oxygen species (ROS) assay, DCFH-DA, diethyl maleate-treated FRDA lymphocytes; assay type: cell-based, human; conditions: 16 h pretreatment, 5 mM diethyl maleate 80 min, DCFH-DA (FIG. 5)
Description: The ability of compounds 1-5 to suppress ROS induced by the depletion of cellular glutathione was evaluated in FRDA lymphocytes in a quantitative FACS experiment using dichlorofluorescein diacetate (DCFH-DA) as an indicator of intracellular ROS levels. In cells DCFH-DA is hydrolyzed by esterases to afford 2, 7-dichlorodihydrofluorescein (DCFH). The non-fluorescent DCFH can be oxidized by cellular oxidants generating fluorescent dichlorofluorescein (DCF).
Reactive Oxygen Species (ROS) Assay
Intracellular ROS production was measured in FRDA lymphocyte cells (GM15850, Coriell Cell Repositories, Camden, N.J.) using the oxidant sensitive fluorescent probe 2,7-dichlorodihydrofluorescein diacetate (DCFH-DA) (Molecular Probes) as described previously. […] The samples were analyzed immediately by flow cytometry (C6 Accuri, BD Biosciences, San Jose, Calif.), using a 488 nm excitation laser and the FL1-H channel 530±15 nm emission filter for DCF and FL2-H channel 585±15 nm emission filter for propidium iodide. The generation of ROS, mainly peroxides, was detected as a result of the oxidation of DCFH. In each analysis, 10,000 events were recorded after dead cell and debris were gated out. […] ROS production was evaluated only in living cells which are propidium iodide negative. […] Results were expressed as percentage of ROS scavenging activity or as percentage of the median fluorescence intensity of DCF.

[5] = tested on: FRDA fibroblasts (GM04078); assay: Cytoprotection of BSO-treated FRDA fibroblasts, Live/Dead kit; assay type: cell-based, human; conditions: overnight preincubation, then BSO (5 mM) 48 h (FIG. 7)
Description: Results obtained were verified by running triplicates and repeating experiments in two independent runs.
The ability of test compounds 1-5 to confer cytoprotection to buthionine sulfoximine (BSO)-treated FRDA fibroblasts from oxidative damage-induced death was determined by using simultaneous staining with a two-color fluorescence assay, the Live/Dead® Viability/Cytotoxicity Kit (Molecular Probes, Eugene, Oreg.). The cells were subjected to L-buthionine (S,R)-sulfoximine, an inhibitor of de novo glutathione (GSH) biosynthesis. Oxidative damage-induced death of FRDA fibroblasts was blocked by the test compounds in a concentration dependent manner (FIG. 7). […] The optimal side chain length was 15 carbon atoms.
The ability of the test compounds to confer cytoprotection to BSO-treated FRDA fibroblasts was determined by assessing plasma membrane integrity and intracellular esterase activity using the LIVE/DEAD Viability/Cytotoxicity Kit for mammalian cells according to the manufacturer's protocol. Briefly, FRDA fibroblasts (GM04078) were plated in 96-well microtiter plates at a density of 3000 cell/well (50 μL) (Costar, Corning, N.Y.). The plates were incubated at 37° C. for 24 h in an atmosphere having 95% humidity and 5% CO2 to allow attachment of the cells to the culture plates and to allow the cell density reach 50-60% confluency. The next day the test compounds were dissolved in DMSO, diluted to the appropriate concentrations in fresh cell culture media and the cells were then treated with the test compounds (final DMSO concentration was <0.5%). Plates were incubated at 37° C. overnight in a humidified atmosphere containing 5% CO2 in air. […] Fluorescence intensities were measured with a Spectramax M5 spectrofluorometer (Molecular Devices, Sunnyvale, Calif.) using excitation and emission wavelengths of 485 nm and 525 nm, respectively. […] The viability of non-BSO treated fibroblasts was set as 100%, and the viability of the BSO treated and sample-treated cells was calculated relative to this value. Cell viability was expressed as the percentage of control.

Compound: CCCCCCCCCCN(CCCCCCCCCC)c1ccc2nc3ccc(=O)cc-3sc2c1 [Compound 2, 7-(N,N-Didecylamino)-3H-phenothiazin-3-one]
- cytotoxicity (FRDA lymphocytes [1]): somewhat cytotoxic
- cellular ATP levels (FRDA lymphocytes [2]): reduces cellular ATP levels in all concentrations

Compound: CCCCN(CCCC)c1ccc2nc3ccc(=O)cc-3sc2c1 [Compound 1, 7-(N,N-Dibutylamino)-3H-phenothiazin-3-one]
- cytotoxicity (FRDA lymphocytes [1]): somewhat cytotoxic
- cellular ATP levels (FRDA lymphocytes [2]): reduces cellular ATP levels in all concentrations

Compound: CCCCCCCCCCCCCCCN(C)c1ccc2nc3ccc(=O)cc-3sc2c1 [Compound 4, 7-(N-Methyl-N-pentadecylamino)-3H-phenothiazin-3-one]
- cytoprotection against rotenone cytotoxicity [3]: protect the cells against rotenone cytotoxicity more efficiently than the parent compound MV
- suppression of ROS induced by depletion of cellular glutathione [4]: more potent and effective in protecting FRDA lymphocytes than the parent compound MV
- cytoprotection from oxidative damage-induced death [5]: better potency than 1 or 2

Compound: CCCCCCCCCCCCCCCN(CCCCCCCCCCCCCCC)c1ccc2nc3ccc(=O)cc-3sc2c1 [Compound 3, 7-(N,N-Dipentadecylamino)-3H-phenothiazin-3-one]
- cytoprotection from oxidative damage-induced death [5]: the least effective

Compound: CCCCCCCCCCCCCCCN(CCCC)c1ccc2nc3ccc(=O)cc-3sc2c1 [Compound 5, 7-(N-Butyl-N-pentadecylamino)-3H-phenothiazin-3-one]
- cytoprotection against rotenone cytotoxicity [3]: protect the cells against rotenone cytotoxicity more efficiently than the parent compound MV
- suppression of ROS induced by depletion of cellular glutathione [4]: more potent and effective in protecting FRDA lymphocytes than the parent compound MV
- cytoprotection from oxidative damage-induced death [5]: better potency than 1 or 2
